ChEMBL document CHEMBL1146979, “Structure-activity relationship of thiopyrimidines as mGluR5 antagonists” (Bioorg Med Chem Lett, 2006)

Columns and labels:
[1] = biological target: Metabotropic glutamate receptor 5 (Homo sapiens, UniProt P41594); experiment: Inhibition of glutamate-induced calcium influx in human mGluR5d by FLIPR; type: functional
[2] = biological target: Metabotropic glutamate receptor 1 (Homo sapiens) (UniProt Q13255); experiment: Activity against mGluR1
[3] = biological target: Metabotropic glutamate receptor 2 (Homo sapiens) (UniProt Q14416); experiment: Activity against mGluR2
[4] = biological target: Metabotropic glutamate receptor 3 (Homo sapiens) (UniProt Q14832); experiment: Activity against mGluR3
[5] = biological target: Metabotropic glutamate receptor 4 (Homo sapiens) (UniProt Q14833); experiment: Activity against mGluR4
[6] = biological target: Metabotropic glutamate receptor 6 (Homo sapiens) (UniProt O15303); experiment: Activity against mGluR6
[7] = biological target: Metabotropic glutamate receptor 7 (Homo sapiens) (UniProt Q14831); experiment: Activity against mGluR7
[8] = biological target: Metabotropic glutamate receptor 8 (Homo sapiens) (UniProt O00222); experiment: Activity against mGluR8
[9] = Clearance in human liver microsomes; type: ADME, Microsome
[10] = Clearance in rat liver microsomes; type: ADME, Microsome

Metabotropic glutamate receptor 5, sequence (P41594 whole entry): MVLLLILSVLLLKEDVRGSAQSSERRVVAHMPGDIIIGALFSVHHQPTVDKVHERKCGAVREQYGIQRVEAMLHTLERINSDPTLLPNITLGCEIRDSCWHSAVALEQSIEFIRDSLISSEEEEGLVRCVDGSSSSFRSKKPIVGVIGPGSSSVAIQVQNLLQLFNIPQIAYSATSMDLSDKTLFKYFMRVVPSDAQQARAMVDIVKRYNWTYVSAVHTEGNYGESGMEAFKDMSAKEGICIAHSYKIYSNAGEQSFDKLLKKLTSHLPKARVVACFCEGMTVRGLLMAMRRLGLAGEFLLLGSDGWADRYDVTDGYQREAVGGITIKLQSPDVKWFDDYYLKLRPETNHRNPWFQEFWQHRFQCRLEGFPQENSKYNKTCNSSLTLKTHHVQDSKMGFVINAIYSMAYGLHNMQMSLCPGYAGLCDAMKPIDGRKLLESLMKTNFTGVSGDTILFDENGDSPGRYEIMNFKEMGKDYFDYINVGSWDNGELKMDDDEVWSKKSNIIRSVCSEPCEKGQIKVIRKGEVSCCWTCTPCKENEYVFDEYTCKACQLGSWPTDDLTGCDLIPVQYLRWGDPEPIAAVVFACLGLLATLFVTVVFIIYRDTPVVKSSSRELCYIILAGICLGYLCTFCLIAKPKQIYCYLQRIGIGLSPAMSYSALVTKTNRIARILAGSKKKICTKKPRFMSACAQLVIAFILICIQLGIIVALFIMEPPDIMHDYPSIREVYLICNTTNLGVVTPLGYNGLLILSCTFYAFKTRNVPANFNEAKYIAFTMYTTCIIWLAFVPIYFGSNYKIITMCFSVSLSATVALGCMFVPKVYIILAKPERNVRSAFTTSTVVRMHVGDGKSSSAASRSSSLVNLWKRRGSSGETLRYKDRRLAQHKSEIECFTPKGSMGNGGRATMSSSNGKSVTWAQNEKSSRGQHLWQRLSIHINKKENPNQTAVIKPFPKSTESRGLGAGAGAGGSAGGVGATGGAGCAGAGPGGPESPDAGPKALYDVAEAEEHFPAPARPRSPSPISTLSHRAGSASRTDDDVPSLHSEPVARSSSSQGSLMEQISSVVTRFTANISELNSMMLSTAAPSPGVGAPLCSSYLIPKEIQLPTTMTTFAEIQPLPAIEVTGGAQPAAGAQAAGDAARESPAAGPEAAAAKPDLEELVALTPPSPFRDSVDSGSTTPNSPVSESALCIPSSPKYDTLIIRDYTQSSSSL
Metabotropic glutamate receptor 3 (Homo sapiens), sequence (Q14832 23-879 limits assumed): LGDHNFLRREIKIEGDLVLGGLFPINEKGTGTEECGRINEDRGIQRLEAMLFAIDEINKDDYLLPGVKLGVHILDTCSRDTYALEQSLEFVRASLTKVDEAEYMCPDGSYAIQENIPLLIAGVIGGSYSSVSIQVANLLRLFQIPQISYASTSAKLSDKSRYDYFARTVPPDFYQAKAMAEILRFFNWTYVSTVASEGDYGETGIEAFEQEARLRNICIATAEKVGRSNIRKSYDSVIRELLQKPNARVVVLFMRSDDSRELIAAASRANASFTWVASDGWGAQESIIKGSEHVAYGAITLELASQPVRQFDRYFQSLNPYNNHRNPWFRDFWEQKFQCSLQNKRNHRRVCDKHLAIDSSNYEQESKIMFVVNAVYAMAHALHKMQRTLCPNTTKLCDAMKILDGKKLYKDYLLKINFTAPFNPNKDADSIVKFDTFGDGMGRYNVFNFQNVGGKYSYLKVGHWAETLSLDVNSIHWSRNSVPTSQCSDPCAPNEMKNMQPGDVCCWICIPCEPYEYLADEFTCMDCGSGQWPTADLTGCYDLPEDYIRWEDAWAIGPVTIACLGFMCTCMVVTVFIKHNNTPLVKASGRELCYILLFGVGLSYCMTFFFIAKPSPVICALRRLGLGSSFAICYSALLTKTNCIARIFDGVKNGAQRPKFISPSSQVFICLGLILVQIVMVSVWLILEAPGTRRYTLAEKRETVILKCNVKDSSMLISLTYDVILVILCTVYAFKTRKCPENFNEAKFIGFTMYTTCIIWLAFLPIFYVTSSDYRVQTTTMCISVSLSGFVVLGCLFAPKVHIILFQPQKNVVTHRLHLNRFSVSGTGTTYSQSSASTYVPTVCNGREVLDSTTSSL
Metabotropic glutamate receptor 1 (Homo sapiens), sequence (Q13255 19-1194 limits assumed): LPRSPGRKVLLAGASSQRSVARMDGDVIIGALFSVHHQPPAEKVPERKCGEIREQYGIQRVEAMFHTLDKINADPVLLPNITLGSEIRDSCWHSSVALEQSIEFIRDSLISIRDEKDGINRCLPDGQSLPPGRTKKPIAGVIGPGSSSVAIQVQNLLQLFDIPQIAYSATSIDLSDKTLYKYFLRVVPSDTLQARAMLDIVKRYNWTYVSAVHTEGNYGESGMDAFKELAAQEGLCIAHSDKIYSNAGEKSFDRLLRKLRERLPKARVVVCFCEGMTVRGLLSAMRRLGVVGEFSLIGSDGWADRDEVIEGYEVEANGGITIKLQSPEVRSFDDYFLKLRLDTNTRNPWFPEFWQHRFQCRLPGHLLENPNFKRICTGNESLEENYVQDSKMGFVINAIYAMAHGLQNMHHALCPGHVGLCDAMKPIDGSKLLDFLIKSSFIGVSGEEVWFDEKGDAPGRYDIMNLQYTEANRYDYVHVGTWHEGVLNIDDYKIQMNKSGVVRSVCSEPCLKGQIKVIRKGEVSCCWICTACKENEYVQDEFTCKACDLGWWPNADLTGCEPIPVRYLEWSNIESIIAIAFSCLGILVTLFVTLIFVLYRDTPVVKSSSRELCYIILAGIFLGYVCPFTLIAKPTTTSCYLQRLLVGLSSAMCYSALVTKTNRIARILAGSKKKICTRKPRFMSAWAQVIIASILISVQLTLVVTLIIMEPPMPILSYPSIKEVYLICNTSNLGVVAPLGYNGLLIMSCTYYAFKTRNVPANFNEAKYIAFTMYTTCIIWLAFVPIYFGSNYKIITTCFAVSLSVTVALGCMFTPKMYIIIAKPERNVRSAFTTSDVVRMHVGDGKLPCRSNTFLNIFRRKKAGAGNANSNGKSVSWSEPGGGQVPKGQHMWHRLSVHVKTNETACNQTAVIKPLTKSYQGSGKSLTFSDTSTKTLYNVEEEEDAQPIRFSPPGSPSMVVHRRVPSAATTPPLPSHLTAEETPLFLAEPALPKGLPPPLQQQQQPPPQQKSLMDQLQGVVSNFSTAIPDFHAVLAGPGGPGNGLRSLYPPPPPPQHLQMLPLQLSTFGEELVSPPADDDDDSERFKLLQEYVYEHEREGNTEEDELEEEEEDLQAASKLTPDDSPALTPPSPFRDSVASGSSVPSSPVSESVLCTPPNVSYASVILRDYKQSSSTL
Metabotropic glutamate receptor 7 (Homo sapiens), sequence (Q14831 whole entry): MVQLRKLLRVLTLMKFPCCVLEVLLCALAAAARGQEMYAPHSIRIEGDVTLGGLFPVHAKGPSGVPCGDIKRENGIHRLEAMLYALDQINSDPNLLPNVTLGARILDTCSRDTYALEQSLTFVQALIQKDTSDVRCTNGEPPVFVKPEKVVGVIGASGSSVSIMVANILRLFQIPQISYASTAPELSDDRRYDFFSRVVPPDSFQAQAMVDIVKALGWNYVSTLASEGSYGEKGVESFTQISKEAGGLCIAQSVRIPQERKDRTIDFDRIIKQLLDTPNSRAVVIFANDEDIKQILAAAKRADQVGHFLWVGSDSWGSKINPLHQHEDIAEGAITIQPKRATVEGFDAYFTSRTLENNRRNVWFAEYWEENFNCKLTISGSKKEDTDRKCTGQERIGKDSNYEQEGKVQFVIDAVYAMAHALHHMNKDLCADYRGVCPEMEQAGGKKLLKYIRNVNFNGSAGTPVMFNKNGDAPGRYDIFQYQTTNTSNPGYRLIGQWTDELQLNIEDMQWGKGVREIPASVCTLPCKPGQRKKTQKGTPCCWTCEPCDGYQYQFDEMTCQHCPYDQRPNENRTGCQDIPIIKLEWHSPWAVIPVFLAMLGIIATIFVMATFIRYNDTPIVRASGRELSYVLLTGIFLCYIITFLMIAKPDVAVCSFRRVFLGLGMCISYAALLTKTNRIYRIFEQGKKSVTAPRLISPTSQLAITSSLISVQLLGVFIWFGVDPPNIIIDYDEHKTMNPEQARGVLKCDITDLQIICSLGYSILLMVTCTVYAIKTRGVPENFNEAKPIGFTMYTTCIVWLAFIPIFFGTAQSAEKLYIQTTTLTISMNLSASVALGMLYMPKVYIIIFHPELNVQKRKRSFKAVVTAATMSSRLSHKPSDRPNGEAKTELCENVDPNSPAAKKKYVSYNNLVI
Metabotropic glutamate receptor 8 (Homo sapiens), sequence (O00222 whole entry): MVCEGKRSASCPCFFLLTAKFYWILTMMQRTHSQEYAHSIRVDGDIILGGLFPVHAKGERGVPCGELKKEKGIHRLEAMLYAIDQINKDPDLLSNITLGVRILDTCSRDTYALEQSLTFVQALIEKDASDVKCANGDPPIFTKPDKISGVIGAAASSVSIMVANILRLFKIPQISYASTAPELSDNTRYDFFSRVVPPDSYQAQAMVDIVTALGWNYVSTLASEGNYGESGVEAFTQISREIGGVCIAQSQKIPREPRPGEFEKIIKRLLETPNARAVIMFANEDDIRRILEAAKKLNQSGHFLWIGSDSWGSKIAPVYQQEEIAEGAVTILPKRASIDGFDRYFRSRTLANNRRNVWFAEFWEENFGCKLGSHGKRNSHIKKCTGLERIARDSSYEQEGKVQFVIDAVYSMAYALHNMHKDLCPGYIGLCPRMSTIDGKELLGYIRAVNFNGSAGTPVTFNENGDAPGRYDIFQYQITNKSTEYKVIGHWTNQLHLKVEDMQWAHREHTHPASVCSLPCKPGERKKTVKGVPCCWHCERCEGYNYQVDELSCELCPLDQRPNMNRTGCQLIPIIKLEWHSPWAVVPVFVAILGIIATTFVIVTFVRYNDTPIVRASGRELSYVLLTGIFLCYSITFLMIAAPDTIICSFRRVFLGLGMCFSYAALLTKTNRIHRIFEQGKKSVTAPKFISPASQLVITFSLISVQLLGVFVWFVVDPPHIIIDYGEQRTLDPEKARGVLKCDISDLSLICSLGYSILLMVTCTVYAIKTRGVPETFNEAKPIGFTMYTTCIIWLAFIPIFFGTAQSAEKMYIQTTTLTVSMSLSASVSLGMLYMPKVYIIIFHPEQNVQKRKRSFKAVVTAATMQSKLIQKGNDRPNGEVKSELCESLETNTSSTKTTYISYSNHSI

Compound Clc1ccc(Sc2ccnc(-c3ccccn3)n2)cc1 has an IC50 ([1]; read-out: IC50) of 320 nM.
Fc1ccc(-c2nccc(Sc3ccc(Cl)c(Cl)c3)n2)nc1 showed an IC50 ([1]; read-out: IC50) of 80 nM, an Activity [2] of over 25 µM and an Activity [3] of over 25 µM. The Activity [4] was over 25 µM, the Activity [5] was over 25 µM and the Activity [6] was over 25 µM. The Activity [7] was over 25 µM, the Activity [8] was over 25 µM and the microsomal CLint [9] was 140 µL/min/mg. It also gave a microsomal CLint [10] of 90 µL/min/mg.
Fc1ccc(Sc2ccnc(-c3ccccn3)n2)cc1F showed an IC50 ([1]; read-out: IC50) of 1520 nM.
In the case of Clc1ccc(Sc2nccc(-c3ccccn3)n2)cc1Cl, the IC50 [1] is reported as “Not Active”.
In the case of Cc1cccc(Sc2ccnc(-c3ccccn3)n2)c1, the IC50 ([1]; read-out: IC50) is reported as 2300 nM.
Compound Clc1ccc(Sc2ccnc(-c3ccncc3)n2)cc1 has an IC50 ([1]; read-out: IC50) of over 10000 nM.
Work on FC(F)(F)c1cccc(Sc2ccnc(-c3ccccn3)n2)c1 yielded an IC50 ([1]; read-out: IC50) of 550 nM.
Clc1cccc(Sc2ccnc(-c3ccccn3)n2)c1 gave an IC50 ([1]; read-out: IC50) of 620 nM.
Clc1ccc(Sc2ccnc(-c3cccnc3)n2)cc1 showed an IC50 ([1]; read-out: IC50) of over 10000 nM.
For Clc1ccc(-c2ccnc(-c3ccccn3)n2)cc1Cl, the IC50 [1] was “Not Active”.
In the case of Cc1cc(Sc2ccc(Cl)cc2)nc(-c2ccccn2)n1, the IC50 ([1]; read-out: IC50) is reported as 1250 nM.
Brc1cccc(Sc2ccnc(-c3ccccn3)n2)c1 gave an IC50 ([1]; read-out: IC50) of 2860 nM.
Work on Clc1ccc(Sc2ccnc(-c3ccccn3)n2)cc1Cl yielded an IC50 ([1]; read-out: IC50) of 90 nM, a microsomal CLint [9] of 90 µL/min/mg and a microsomal CLint [10] of 120 µL/min/mg.
In the case of Clc1ccc(Cc2ccnc(-c3ccccn3)n2)cc1, the IC50 ([1]; read-out: IC50) is reported as over 10000 nM.
For FC(F)(F)c1ccc(Sc2ccnc(-c3ccccn3)n2)cc1, the IC50 ([1]; read-out: IC50) was 210 nM.
Work on CC(=O)N(c1ccc(Cl)cc1)c1ccnc(-c2ccccn2)n1 yielded an IC50 ([1]; read-out: IC50) of over 10000 nM.
Clc1ccc(Oc2ccnc(-c3ccccn3)n2)cc1 showed an IC50 ([1]; read-out: IC50) of over 10000 nM.
For Clc1ccc(Sc2cccc(-c3ccccn3)n2)cc1Cl, the IC50 [1] was “Not Active”.
For Cc1cccc(-c2nccc(Sc3ccc(Cl)c(Cl)c3)n2)n1, the IC50 ([1]; read-out: IC50) was 390 nM, the Activity [2] was over 25 µM and the Activity [3] was over 25 µM. The Activity [4] was over 25 µM, the Activity [5] was over 25 µM and the Activity [6] was over 25 µM. It also gave an Activity [7] of over 25 µM and an Activity [8] of over 25 µM.
Work on OC(c1ccc(Cl)cc1)c1ccnc(-c2ccccn2)n1 (stereo not given) yielded an IC50 ([1]; read-out: IC50) of over 3000 nM.
Work on Clc1ccc(Nc2ccnc(-c3ccccn3)n2)cc1 yielded an IC50 ([1]; read-out: IC50) of over 10000 nM.
Compound Clc1ccc(Sc2ccnc(-c3ccccn3)c2)cc1Cl has an IC50 ([1]; read-out: IC50) of 2370 nM.
